From US6423335B1, “Modified milk powder composition” (priority 1999, dated 2002)

Experiments:
Type in all cases: in vivo, rats (the Donryu strain)
[1] = Low protein diet feeding in rats: body weight, weight of tissues, BUN, blood profile (Example 1); conditions: for efficiency of protein utilization of feed / feed efficiency: versus 3% protein diet group; for level of platelets: versus suppression in 3% protein diet group
From the text: (§1) Four-week-age male rats (the Donryu strain) were fed 20% protein diet for one week. Then, glutamine (Gln) and glutamic acid (Glu) each were mixed into 3% protein diet at the level of 5% (w/w) and offered to the rats for three weeks. Also, a 20% protein diet group and a 3% protein diet group were set as controls. Upon each rat, body weight, weight of tissues, blood urea nitrogen (BUN), the level of leukocytes, the level of erythrocytes, hematocrit, the level of platelets, and production of TNF-α by peritoneal macrophage as an index of immune response were determined.

peritoneal macrophage [2] = test: Production of TNF-α by peritoneal macrophage as an index of immune response (Example 1); conditions: 5% (w/w) in 3% protein diet, three weeks; versus suppression in 3% protein diet group
From the text: as §1

[3] = Commercial modified milk powder feeding in rats: body weight, weight of tissues, BUN, blood profile (Example 2); conditions: two weeks
From the text: (§2) Then, using commercial modified milk powder (milk serum protein, soybean oil, lactose, and various vitamins and minerals were mixed; level of proteins was from 12 to 13% by weight) as a control, glutamine ([…] became 2, 5, 8, or 40%), and each diet was offered (free ingestion) for two weeks. Upon each rat, body weight, weight of tissues, blood urea nitrogen (BUN), the level of leukocytes, the level of erythrocytes, hematocrit, the level of platelets, and production of TNF-α by peritoneal macrophage as an index of immune response were measured.

peritoneal macrophage [4] = test: Production of TNF-α by peritoneal macrophage as an index of immune response (Example 2); conditions: two weeks
From the text: as §2

[5] = 5% (w/w) in 3% protein diet, three weeks
[6] = male rats, 5% (w/w) in 3% protein diet, three weeks
[7] = 0.3% Gln in modified milk powder
[8] = 0.65% Gln in modified milk powder
[9] = 1.5% Gln group, modified milk powder

N[C@@H](CCC(=O)O)C(=O)O [Glu, glutamic acid]
efficiency of protein utilization of feed [1, 5]: this beneficial phenomenon was not observed | feed efficiency [1, 5]: this beneficial phenomenon was not observed | level of platelets [1, 5]: no improvement | Blood urea nitrogen [1, 6]: 18.8 ± 2.9 mg/dL | Body weight at the end of experiment [1, 6]: 180.5 ± 3.8 | production of TNF-α by peritoneal macrophage (peritoneal macrophage [2]): no improvement

NC(=O)CC[C@H](N)C(=O)O [Gln, glutamine]
remarkable decrease of body weight on low protein diet ([1]; 5% (w/w) in 3% protein diet, three weeks, compared with 3% protein diet group): this phenomenon was observed | efficiency of protein utilization of feed [1, 5]: higher than those in the 3% protein diet group | feed efficiency [1, 5]: higher than those in the 3% protein diet group | level of platelets [1, 5]: improvement was observed | Body weight at the end of experiment [1, 6]: 200.2 ± 3.1 | Blood urea nitrogen ([1]; rat, in vivo): 18.9 ± 2.1 mg/dL | production of TNF-α by peritoneal macrophage (peritoneal macrophage [2]): improvement was observed | Blood urea nitrogen [3, 7]: 20.5 mg/dL | Body weight at the end of experiment [3, 7]: 233.1 | body weight and any of the other indexes versus control group (Gln 0%) [3, 7]: no difference | Blood urea nitrogen [3, 8]: 22.1 mg/dL | Body weight at the end of experiment [3, 8]: 238.2 | body weight versus control group [3, 8]: a slight difference | Blood urea nitrogen ([3]; 1% Gln in modified milk powder): 23.4 mg/dL | Body weight at the end of experiment ([3]; 1% Gln in modified milk powder): 241.7 | body weight as compared with the control group [3, 9]: there were observed differences | level of platelets as compared with the control group [3, 9]: there were observed differences | Blood urea nitrogen ([3]; 5% Gln in modified milk powder): 24.1 mg/dL | Body weight at the end of experiment ([3]; 5% Gln in modified milk powder): 245.8 | production of TNF-α by peritoneal macrophage versus control group (peritoneal macrophage [4]; [8]): higher than that at the control group | production of TNF-α by peritoneal macrophage as compared with the control group (peritoneal macrophage [4]; [9]): there were observed differences
